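Growth conditions: 96-well plates. Treatment: test compound, 48 hours, 5 concentrations. Analysis: linear interpolation between bracketing concentrations; unreached endpoints set to highest concentration. GI50 is the concentration that inhibits growth by half.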 Active and inactive are the calls of the source. No stated cut-off is given here; in the data, active = GI50 up to about 1.1 µM and inactive = higher.
What was measured:
Assay in all cases: NCI anticancer screen, dose series, 48 h
[1] = test system: Malme-3M
[2] = test system: HOP-62
[3] = test system: SK-MEL-5
[4] = test system: OVCAR-5
[5] = test system: SR
[6] = test system: M14
[7] = test system: EKVX
[8] = test system: UACC-62
[9] = test system: U-251
[10] = test system: K562
[11] = test system: KM12
[12] = test system: SW-620
[13] = test system: SF-539
[14] = test system: NCI-H226
[15] = test system: RPMI-8226
[16] = test system: A498

Measured: GI50

CN(C)CCCn1cnc2ncccc2c1=O
inactive: [1] > 100 µM | [2] > 100 µM | [3] > 100 µM | [4] > 100 µM | [5] > 100 µM | [6] > 100 µM | [7] > 100 µM | [8] > 100 µM | [9] > 100 µM | [10] > 100 µM | [11] > 100 µM | [12] > 100 µM | [13] > 100 µM | [14] > 100 µM

CCOC(=O)C(c1ccsc1)P(=O)(OCC)OCC (centres undefined)
inactive: [1] 23.2 µM | [2] 28.1 µM | [3] 15.7 µM | [4] 23.1 µM | [6] 12.9 µM | [7] 23.9 µM | [15] 9.4 µM | [8] 8.22 µM | [9] 17.9 µM | [11] 13.4 µM | [12] 15.4 µM | [13] 14.2 µM | [14] 18.4 µM

O=C(Cc1nc2ccccc2o1)C(=O)Nc1cccc(Cl)c1
inactive: [1] > 100 µM | [2] > 100 µM | [5] > 100 µM | [16] > 100 µM | [6] > 100 µM | [7] > 100 µM | [8] > 100 µM | [9] > 100 µM | [10] > 100 µM | [11] > 100 µM | [12] > 100 µM | [13] > 100 µM | [14] > 100 µM

O=C1CCC(=O)C12CCc1ccccc12
inactive: [1] > 100 µM | [2] > 100 µM | [6] > 100 µM | [7] > 100 µM | [8] > 100 µM | [9] > 100 µM | [10] > 10 µM | [12] > 100 µM

CC1(C)CC(=O)C(/C(=N/NC(=S)NN)C(=O)Nc2nc3ccc([N+](=O)[O-])cc3s2)C(=O)C1
inactive: [1] > 100 µM | [2] > 100 µM | [3] > 100 µM | [4] > 100 µM | [5] > 100 µM | [16] > 100 µM | [6] > 100 µM | [7] > 100 µM | [8] > 100 µM | [9] > 100 µM | [10] 62.1 µM | [11] > 100 µM | [12] > 100 µM | [13] > 100 µM | [14] 55.5 µM

Cc1c2ccccc2cc2ccc3oc([N+](=O)[O-])cc3c12
inactive: [1] > 100 µM | [2] > 100 µM | [3] 3.18 µM | [4] > 100 µM | [16] 5.6 µM | [6] 4.46 µM | [7] 81.7 µM | [15] > 100 µM | [8] > 100 µM | [9] > 100 µM | [10] > 100 µM | [11] > 100 µM | [12] > 100 µM | [13] > 100 µM

COC(=O)/C(=N\NC(N)=O)C(C#N)c1ccccc1 (centres undefined)
inactive: [1] > 100 µM | [2] > 100 µM | [4] > 100 µM | [16] > 100 µM | [6] > 100 µM | [7] > 100 µM | [15] > 100 µM | [8] > 100 µM | [9] > 100 µM | [10] > 100 µM | [11] > 100 µM | [12] > 100 µM | [13] > 100 µM | [14] > 100 µM

Cc1ccc(C(=O)CC2(O)C(=O)Nc3c(C)cc(Cl)cc32)cc1 (centres undefined)
inactive: [1] > 100 µM | [2] > 100 µM | [3] > 100 µM | [4] > 100 µM | [6] > 100 µM | [7] > 100 µM | [15] 43.2 µM | [9] > 100 µM | [10] 86.5 µM | [11] > 100 µM | [12] > 100 µM | [14] > 100 µM

Cc1ccccc1NC(=O)c1cc(-c2ccc([N+](=O)[O-])cc2)nc(S)n1
inactive: [1] > 100 µM | [2] > 100 µM | [3] > 100 µM | [4] > 100 µM | [6] > 100 µM | [7] > 100 µM | [8] > 100 µM | [9] > 100 µM | [10] > 100 µM | [11] > 100 µM | [12] > 100 µM | [13] > 100 µM | [14] > 100 µM

CCOC(=O)C(Cc1c(C=O)[nH]c2ccccc12)(NC(=O)c1ccccc1)C(=O)OCC
inactive: [1] 17.7 µM | [3] 11.4 µM | [4] 20.5 µM | [5] > 100 µM | [6] 17 µM | [7] 18.5 µM | [15] > 100 µM | [9] 11.6 µM | [10] 6.46 µM | [11] 10.3 µM | [12] 14.2 µM | [13] 16.3 µM | [14] 19.5 µM

CC(C)=CCC/C(C)=C/Cc1c(O)c(C)cc2c1[nH]c1cc(O)ccc12
inactive: [1] > 25 µM | [2] > 25 µM | [3] > 25 µM | [4] > 25 µM | [5] > 25 µM | [6] > 25 µM | [15] > 25 µM | [8] > 25 µM | [9] > 25 µM | [10] > 25 µM | [11] > 25 µM | [12] > 25 µM | [13] > 25 µM | [14] > 25 µM

O=C(C/C(=N\NC(=O)C[n+]1ccccc1)C(=O)Nc1nc2ccc([N+](=O)[O-])cc2s1)CC(c1ccccc1)c1c(O)c2ccccc2oc1=O (centres undefined)
inactive: [1] > 100 µM | [2] > 100 µM | [3] > 100 µM | [4] > 100 µM | [5] > 100 µM | [16] 46.3 µM | [6] > 100 µM | [7] > 100 µM | [15] > 100 µM | [8] > 100 µM | [10] > 100 µM | [11] > 100 µM | [12] > 100 µM | [13] > 100 µM

CC(Oc1ccc(OCC2CCCCC2)cc1)C(N)=O (centres undefined)
inactive: [1] > 100 µM | [3] > 100 µM | [6] > 100 µM | [8] > 100 µM | [9] > 100 µM | [10] > 100 µM | [11] > 100 µM | [12] > 100 µM | [13] > 100 µM | [14] > 100 µM

COc1ccc(/C=C2\N=C(c3ccccc3)OC2=O)c(OCc2ccccc2)c1
inactive: [1] 39.4 µM | [2] 20.5 µM | [3] 19.8 µM | [4] > 100 µM | [5] 21.7 µM | [16] 16.3 µM | [6] 49.7 µM | [7] > 100 µM | [15] 15.8 µM | [8] 19.7 µM | [10] 32.1 µM | [11] 33 µM | [12] > 100 µM | [13] 24 µM | [14] 53.2 µM

c1ccc(CSc2nc3ccccc3nc2-c2cccs2)cc1
inactive: [1] > 100 µM | [2] > 100 µM | [3] > 100 µM | [4] > 100 µM | [6] > 100 µM | [7] > 100 µM | [15] > 100 µM | [9] > 100 µM | [10] > 100 µM | [11] > 100 µM | [13] > 100 µM | [14] > 100 µM
